Measurements as given in patent US8263610B2, “Substituted imidazolyl-5,6-dihydrobenzo[N]isoquinoline compounds” (ArQule, Inc., priority 2008, dated 2012).

Columns and labels:
[1] = biological target: T1, FGFR2(N549H) (Homo sapiens, UniProt P21802, N549H); assay: fluorescent ELISA assay for inhibitors of FGFR2 kinase; assay type: biochemical; details: 37 μM Pyk2 substrate, 12.5 μM ATP, 0.5 μM FGFR2 enzyme, 60 minutes
T1 construct: purchased Millipore 14-742
Experimental: The enzymatic assays described herein are conducted according to the following procedures from commercially available reagents. In one, non limiting, example, a fluorescent ELISA assay is used to identify and characterize inhibitors of FGFR2 kinase as described herein. This heterogeneous assay utilizes a biotinylated peptide with a tyrosine motif as a substrate and an anti-phospho-tyrosine antibody to measure phosphorylation of the substrate. The reaction is initiated by adding the test compound, 37 μM Pyk2 substrate (Midwest Biotech, Cat. #MBT2383), 12.5 μM ATP (Roche, Cat. #11 140 965 001) and 0.5 μM FGFR2 enzyme (Millipore, Cat. #14-742) sequentially to a non-binding polypropylene V-well plate. All reagents are in an assay buffer consisting of: 50 mM Tris-HCL, 0.02 mg/ml BSA, 10 mM MgCl2, 0.1 mM Na3VO4, 1 mM EGTA, 75 μM ATP, 0.01% NP-40, 2 mM DTT and 10% glycerol. The reaction is incubated for 60 minutes. As the reaction proceeds, FGFR2 phosphorylates tyrosines in the peptide. The reaction mixture is then moved to a blocked streptavidin-coated Nunc Maxisorb plate (coated with 100 ng streptavidin from Pierce (Cat. #15-124) per well), allowing for the capture of the biotinylated peptide. Peptides are captured for 30 minutes at room temperature, the phosphorylation of peptides continues during this phase. The reaction is stopped by washing the streptavidin-coated plate 6 times with TBST. Phosphorylated peptide is detected by adding anti-phospho-tyrosine antibody (Cell Signaling, Cat. #9411, diluted 1:3000) to the streptavidin-coated plate. Unbound anti-phospho-tyrosine antibody is removed by washing the streptavidin-coated plate 6 times with TBST. Secondary detection is performed using alkaline phosphatase tagged goat anti-mouse antibody (Pierce, Cat. #31320, diluted 1:4000) for one hour. Unbound secondary antibody is removed by washing the streptavidin-coated plate 6 times with TBST. The fluorescent readout is initiated by adding to the streptavidin-coated plate Promega Attophos substrate (Promega, Cat. #S1000, dilution=6 mg/10 ml), which, when dephosphorylated by alkaline phosphatase, emits a fluorescent signal of 595 nm in wavelength when excited by a signal of 400 nm in wavelength. The reading of the 595 nm signal is done on the Perkin Elmer Envision system. Compounds which prevent FGFR2 from phosphorylating the peptide result in a lower fluorescent signal. The 595 nm fluorescent signal is directly proportional to the activity of FGFR2. Thus, the inhibition of FGFR2 by compounds is monitored by the decrease in the 595 nm fluorescent signal.

[2] = system: DLD-1 cells; assay: MTS assay, inhibition of cell growth; assay type: cell-based; details: Homo sapiens, compound at 10 μM, 72 hours
How it was run: (§1)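 Cells seeded at 3000/well in DMEM with 10% FBS, grown 18 h at 37 °C, then exposed to compounds for 72 h. Growth read by MTS/PMS reduction (4 h) as formazan absorbance at 492 nm, reflecting dehydrogenase activity of metabolically active cells.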

[3] = system: Kato III cells; assay: MTS assay, inhibition of cell growth; assay type: cell-based; details: Homo sapiens, compound at 10 μM, 72 hours
How it was run: as §1

[4] = system: MDA-MB-231 cells; assay: MTS assay, inhibition of cell growth; assay type: cell-based; details: Homo sapiens, compound at 10 μM, 72 hours
How it was run: as §1

[5] = system: NCI-H1299 cells; assay: MTS assay, inhibition of cell growth; assay type: cell-based; details: Homo sapiens, compound at 10 μM, 72 hours
How it was run: as §1

[6] = system: PACA-2 cells; assay: MTS assay, inhibition of cell growth; assay type: cell-based; details: compound at 10 μM, 72 hours
How it was run: as §1

T1 sequence (P21802 22-821 N549H): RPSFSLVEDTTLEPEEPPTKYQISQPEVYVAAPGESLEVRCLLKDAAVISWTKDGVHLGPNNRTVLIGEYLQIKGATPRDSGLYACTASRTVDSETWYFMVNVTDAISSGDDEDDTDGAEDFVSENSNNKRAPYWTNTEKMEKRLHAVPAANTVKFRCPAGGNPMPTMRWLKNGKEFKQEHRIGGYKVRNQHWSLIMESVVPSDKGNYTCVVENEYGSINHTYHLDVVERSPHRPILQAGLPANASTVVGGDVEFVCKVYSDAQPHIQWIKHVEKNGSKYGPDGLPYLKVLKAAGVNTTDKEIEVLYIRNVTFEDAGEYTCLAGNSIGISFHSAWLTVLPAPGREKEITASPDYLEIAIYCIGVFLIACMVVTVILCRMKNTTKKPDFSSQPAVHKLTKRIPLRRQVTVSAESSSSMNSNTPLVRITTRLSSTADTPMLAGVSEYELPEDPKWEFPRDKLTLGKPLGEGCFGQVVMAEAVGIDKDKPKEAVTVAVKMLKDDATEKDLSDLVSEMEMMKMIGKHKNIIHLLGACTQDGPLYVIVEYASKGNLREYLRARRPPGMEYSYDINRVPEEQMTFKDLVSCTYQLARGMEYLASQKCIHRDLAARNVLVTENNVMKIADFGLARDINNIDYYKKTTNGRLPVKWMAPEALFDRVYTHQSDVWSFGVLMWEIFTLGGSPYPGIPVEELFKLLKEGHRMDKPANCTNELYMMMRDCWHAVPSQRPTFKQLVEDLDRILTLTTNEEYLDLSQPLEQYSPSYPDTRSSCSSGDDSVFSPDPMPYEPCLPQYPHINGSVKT

| Structure (SMILES) | IC50 [1] | further results |
| --- | --- | --- |
| Clc1ccc(C2Cc3cnc4[nH]ncc4c3-c3ccccc32)c(Cl)c1 (stereo not shown) [7-(2,4-dichlorophenyl)-6,7-dihydro-3H-benzo[f]pyrazolo[3,4-c]isoquinoline] | 2.51 µM | – |
| Clc1ccc(C2Cc3cnc4[nH]ncc4c3-c3ccccc32)cc1Cl (stereo not shown) [7-(3,4-dichlorophenyl)-6,7-dihydro-3H-benzo[f]pyrazolo[3,4-c]isoquinoline] | 20.8 µM | – |
| CC(C)(C)OC(=O)NCc1cccc(-c2n[nH]c3ncc4c(c23)CCN(C(=O)OC(C)(C)C)C4)c1 [tert-butyl 1-(3-{[(tert-butoxycarbonyl)amino]methyl}phenyl)-3,6,8,9-tetrahydro-7H-pyrazolo[3,4-c][2,7]naphthyridine--7-carboxylate] | – | inhibition at 10 µM [2]: 75 to 100%; inhibition at 10 µM [3]: 75 to 100%; inhibition at 10 µM [4]: 75 to 100%; inhibition at 10 µM [5]: 50 to 74%; inhibition at 10 µM [6]: 75 to 100% |

The next lines start with results.

| IC50 [1] | Structure (SMILES) | further results |
| --- | --- | --- |
| 4.07 µM | Fc1ccc(C2Cc3cnc4[nH]ncc4c3-c3ccccc32)cc1 (stereo not shown) [7-(4-fluorophenyl)-6,7-dihydro-3H-benzo[f]pyrazolo[3,4-c]isoquinoline] | – |
| 0.224 µM | c1ccc(C2Cc3cnc4[nH]ncc4c3-c3ccccc32)cc1 (stereo not shown) [7-phenyl-6,7-dihydro-3H-benzo[f]pyrazolo[3,4-c]isoquinoline] | – |
| 6.81 µM | Cc1cc(C)c2c(c1)-c1c(cnc3[nH]ncc13)CC2 [8,10-dimethyl-6,7-dihydro-3H-benzo[f]pyrazolo[3,4-c]isoquinoline] | – |
